US6479435B1, “Diaryl ethers and processes for their preparation and herbicidal and desiccant compositions containing them” (ISK Americas Incorporated, priority 1997, dated 2002)

Columns and labels:
Type in all cases: in vivo
[1] = tested on: common ragweed (Ambrosia artemisiifolia L., AMBEL); assay: Post-emerge greenhouse herbicide test, phytotoxicity rating; conditions: 14 days after application
Summary of the method: (§1)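 Compounds in acetone with 0.25% v/v non-ionic surfactant were track-sprayed at 187 l/ha over plants at the 2-3 leaf stage, at 63 to 1000 g ai/ha. Pots were bottom-watered. Injury was scored visually 14 days later on a 0-100 scale, where 0 is no damage and 100 is complete plant death.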

[2] = tested on: soybean (Glycine max L., var. Pella 86, SOY); assay: Pre-emerge greenhouse test, crop damage rating; conditions: 14 days after application, rating scale 0-100
Summary of the method: (§2)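 Seeds sown in sandy loam mix one day before track-sprayer application of compounds in acetone at 125–1000 g ai/ha (187 l/ha), then surface-watered to incorporate and bottom-watered. Visual rating 14 days after application on a 0–100 scale (0 = no damage, 100 = all plants dead).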

[3] = tested on: upland rice (Oryza sp., var.Tebonnet, RICE); assay: Post-emerge greenhouse test, crop damage rating; conditions: 14 days after application
Summary of the method: as §1

[4] = tested on: field corn (Zea mays L., var. Dekalb 535, CORN); assay: Post-emerge greenhouse test, crop damage rating; conditions: 14 days after application
Summary of the method: as §1

[5] = tested on: soybean (Glycine max L., var. Pella 86, SOY); assay: Post-emerge greenhouse test, crop damage rating; conditions: 14 days after application
Summary of the method: as §1

[6] = tested on: ivyleaf morningglory (Ipomoea hederacea, IPOHE); assay: Pre-emerge greenhouse herbicide test, phytotoxicity rating; conditions: 14 days after application, rating scale 0-100
Summary of the method: as §2

[7] = tested on: large crabgrass (Digitaria sanguinalis, DIGSA); assay: as above; conditions: 14 days after application, rating scale 0-100
Summary of the method: as §2

[8] = tested on: Johnsongrass (Sorghum halepense, SORHA); assay: as above; conditions: 14 days after application, rating scale 0-100
Summary of the method: as §2

[9] = tested on: sicklepod (Cassia obtusifolia, CASOB); assay: as above; conditions: 14 days after application, rating scale 0-100
Summary of the method: as §2

[10] = tested on: common ragweed (Ambrosia artemisiifolia L., AMBEL); assay: as above; conditions: 14 days after application, rating scale 0-100
Summary of the method: as §2

[11] = tested on: green foxtail (Setaria viridis, SETVI); assay: as above; conditions: 14 days after application, rating scale 0-100
Summary of the method: as §2

[12] = tested on: barnyardgrass (Echinochloa crusgalli, ECHCG); assay: as above; conditions: 14 days after application, rating scale 0-100
Summary of the method: as §2

[13] = tested on: redroot pigweed (Amaranthus retroflexus, AMARE); assay: as above; conditions: 14 days after application, rating scale 0-100
Summary of the method: as §2

[14] = tested on: lambsquarters (Chenopodium album, CHEAL); assay: as above; conditions: 14 days after application, rating scale 0-100
Summary of the method: as §2

[15] = tested on: velvetleaf (Abutilon theophrasti, ABUTH); assay: as above; conditions: 14 days after application, rating scale 0-100
Summary of the method: as §2

[16] = tested on: ivyleaf morningglory (Ipomoea hederacea, IPOHE); assay: Post-emerge greenhouse herbicide test, phytotoxicity rating; conditions: 14 days after application
Summary of the method: as §1

[17] = tested on: large crabgrass (Digitaria sanguinalis, DIGSA); assay: as above; conditions: 14 days after application
Summary of the method: as §1

[18] = tested on: Johnsongrass (Sorghum halepense, SORHA); assay: as above; conditions: 14 days after application
Summary of the method: as §1

[19] = tested on: sicklepod (Cassia obtusifolia, CASOB); assay: as above; conditions: 14 days after application
Summary of the method: as §1

[20] = tested on: green foxtail (Setaria viridis, SETVI); assay: as above; conditions: 14 days after application
Summary of the method: as §1

[21] = tested on: barnyardgrass (Echinochloa crusgalli, ECHCG); assay: as above; conditions: 14 days after application
Summary of the method: as §1

[22] = tested on: redroot pigweed (Amaranthus retroflexus, AMARE); assay: as above; conditions: 14 days after application
Summary of the method: as §1

[23] = tested on: lambsquarters (Chenopodium album, CHEAL); assay: as above; conditions: 14 days after application
Summary of the method: as §1

[24] = tested on: velvetleaf (Abutilon theophrasti, ABUTH); assay: as above; conditions: 14 days after application
Summary of the method: as §1

[25] = tested on: upland rice (Oryza sp., var.Tebonnet, RICE); assay: Pre-emerge greenhouse test, crop damage rating; conditions: 14 days after application, rating scale 0-100
Summary of the method: as §2

[26] = tested on: field corn (Zea mays L., var. Dekalb 535, CORN); assay: Pre-emerge greenhouse test, crop damage rating; conditions: 14 days after application, rating scale 0-100
Summary of the method: as §2

## Nc1ccc(Oc2cc(-n3c(=O)n4n(c3=S)CCCC4)c(F)cc2Cl)cc1 [Compound 8-9]
[1]; 63 g al/ha
  AMBEL phytotoxicity rating (0-100): 30
[1]; 500 g al/ha
  AMBEL phytotoxicity rating (0-100): 80
[2]; 125 g ai/ha
  crop damage rating SOY: 0
[2]; 500 g ai/ha
  crop damage rating SOY: 0
[3]; 63 g al/ha
  RICE crop damage rating (0-100): 0
[3]; 500 g al/ha
  RICE crop damage rating (0-100): 0
[4]; 63 g al/ha
  CORN crop damage rating (0-100): 0
[4]; 500 g al/ha
  CORN crop damage rating (0-100): 10
[5]; 63 g al/ha
  SOY crop damage rating (0-100): 20
[5]; 500 g al/ha
  SOY crop damage rating (0-100): 70
[6]; 125 g ai/ha
  phytotoxicity rating IPOHE: 0
[6]; 500 g ai/ha
  phytotoxicity rating IPOHE: 10
[7]; 125 g ai/ha
  phytotoxicity rating DIGSA: 0
[7]; 500 g ai/ha
  phytotoxicity rating DIGSA: 0
[8]; 125 g ai/ha
  phytotoxicity rating SORHA: 0
[8]; 500 g ai/ha
  phytotoxicity rating SORHA: 0
[9]; 125 g ai/ha
  phytotoxicity rating CASOB: 0
[9]; 500 g ai/ha
  phytotoxicity rating CASOB: 40
[10]; 125 g ai/ha
  phytotoxicity rating AMBEL: 30
[10]; 500 g ai/ha
  phytotoxicity rating AMBEL: 30
[11]; 125 g ai/ha
  phytotoxicity rating SETVI: 0
[11]; 500 g ai/ha
  phytotoxicity rating SETVI: 30
[12]; 125 g ai/ha
  phytotoxicity rating ECHCG: 0
[12]; 500 g ai/ha
  phytotoxicity rating ECHCG: 0
[13]; 125 g ai/ha
  phytotoxicity rating AMARE: 100
[13]; 500 g ai/ha
  phytotoxicity rating AMARE: 95
[14]; 125 g ai/ha
  phytotoxicity rating CHEAL: 70
[14]; 500 g ai/ha
  phytotoxicity rating CHEAL: 100
[15]; 125 g ai/ha
  phytotoxicity rating ABUTH: 60
[15]; 500 g ai/ha
  phytotoxicity rating ABUTH: 100
[16]; 63 g al/ha
  IPOHE phytotoxicity rating (0-100): 40
[16]; 500 g al/ha
  IPOHE phytotoxicity rating (0-100): 100
[17]; 63 g al/ha
  DIGSA phytotoxicity rating (0-100): 0
[17]; 500 g al/ha
  DIGSA phytotoxicity rating (0-100): 10
[18]; 63 g al/ha
  SORHA phytotoxicity rating (0-100): 0
[18]; 500 g al/ha
  SORHA phytotoxicity rating (0-100): 30
[19]; 63 g al/ha
  CASOB phytotoxicity rating (0-100): 0
[19]; 500 g al/ha
  CASOB phytotoxicity rating (0-100): 100
[20]; 63 g al/ha
  SETVI phytotoxicity rating (0-100): 0
[20]; 500 g al/ha
  SETVI phytotoxicity rating (0-100): 30
[21]; 63 g al/ha
  ECHCG phytotoxicity rating (0-100): 0
[21]; 500 g al/ha
  ECHCG phytotoxicity rating (0-100): 0
[22]; 63 g al/ha
  AMARE phytotoxicity rating (0-100): 90
[22]; 500 g al/ha
  AMARE phytotoxicity rating (0-100): 100
[23]; 63 g al/ha
  CHEAL phytotoxicity rating (0-100): 60
[23]; 500 g al/ha
  CHEAL phytotoxicity rating (0-100): 95
[24]; 63 g al/ha
  ABUTH phytotoxicity rating (0-100): 50
[24]; 500 g al/ha
  ABUTH phytotoxicity rating (0-100): 100
[25]; 125 g ai/ha
  crop damage rating RICE: 0
[25]; 500 g ai/ha
  crop damage rating RICE: 0
[26]; 125 g ai/ha
  crop damage rating CORN: 0
[26]; 500 g ai/ha
  crop damage rating CORN: 0
